We go through two compounds from US20260070921A1, “COMPOUND, ENDOPLASMIC RETICULUM STRESS INHIBITOR, PHARMACEUTICAL PRODUCT, OPHTHALMIC AGENT, EYE DROPS, COMPOSITION, AND METHOD FOR PRODUCING COMPOUND” (KYOTO UNIVERSITY, priority 2022, published 2026).

One series can be described thus: Solubility. Format: physicochemical. Conditions: in DMSO.
The test system of the next series is CHOP. The experiment in a line: Quantitative RT-PCR of ER stress-related genes, CHOP. Format: cell-based. Conditions: pretreatment 10 h, tunicamycin 1.0 μg/mL 24 h. As to the method:
(§1) First, total RNA was isolated using ISOGEN (tradename of Nippon Gene Co., Ltd.). cDNA was prepared using a Prime Script (trade name) first-strand cDNA synthesis kit (TaKaRa). qRT-PCR was performed with Fast SYBR Green Master Mix (Thermo Fisher) on a QuantStudio 3 real-time PCR system (Thermo Fisher). The copy number of each transcript is expressed relative to β-actin. The sequences of the primers (forward and reverse) are as follows: […]
(§2) The ability to alleviate endoplasmic reticulum (ER) stress of compound 1 was examined in HEK293 cells. FIGS. 1 and 2 show the biological activity of compound 1 for decreasing cytotoxicity under ER stress. […] Error bars represent s.d. (n=3). Statistical analysis was performed according to one-way ANOVA and a Dunnett's test using R software. […] To further study the effect of compound 1 on ER stress, mRNA levels of typical UPR genes, such as ATF4, s-XPB1, CHOP, BiP, and ERDJ4, were examined. In addition to compound 1, compound 6 was also tested in the same experiment. […] The quantitative RT-PCR was performed according to the method described above. HEK293 cells were treated with compound 1 (100 μM) for 10 hours and then incubated with tunicamycin (1.0 μg/mL) for 24 hours. Isolated RNA samples were subjected to reverse transcription and quantitative RT-PCR. […]

The next series concerns BiP. Briefly: Quantitative RT-PCR of ER stress-related genes, BiP. Format: cell-based. The following applies: pretreatment 10 h, tunicamycin 1.0 μg/mL 24 h. On the procedure: as §1, §2
A further series concerns HEK293 cells. The experiment in a line: Fluorescence imaging of self-assemblies in living cells (DCVJ). Conditions: DCVJ 1.0 μM. It is filed as cell-based. On the procedure:
HEK293 cells were incubated with compound 1, 4, 5, or 6 (25 or 100 μM) in the presence of 1.0 μM DCVJ in DMEM (10% FBS). Fluorescence and bright-field images were taken with a CV1000 confocal microscope equipped with a 40× objective lens (Yokogawa Electric Corporation).
The ability of compound 1 and its derivatives, compounds 4 to 6, to form assemblies was also monitored in living cells. […] HEK293 cells were treated with compound 1, 4, 5, or 6 (25 μM or 100 μM) and 1.0 μM of DCVJ for 8 hours. Fluorescence and bright-field images were taken with a CV1000 confocal microscope. HEK293 cells were treated with compound 1, 4, 5, or 6 (25 or 100 μM) and DCVJ (1.0 μM) for 8 hours and observed with a confocal microscope. […] The self-assembling ability of the molecules of compound 6 may be due to its cellular activity at that concentration, even at 25 μM. […] To further support the importance of self-organization formation in cellular activity, dose-response curves for compounds 1 and 6 were determined. The biological activity of the compounds' molecular assembly is expected to be more cooperative than that of the monomer and to show a steeper dose-response curve (Reference Material 18 below). […] Compound 6 is referred to as “selfonamide” below. […] P. A High-Throughput Screen for Aggregation-Based Inhibition in a Large Compound Library. J Med Chem 2007, 50 (10), 2385-2390. https://doi.org/10.1021/jm061317y.

The subject of a further series is Atg5, and Atg12. Briefly: Western blotting of sclera after myopia induction, Atg5/Atg12. Format: in vivo, mice. The following applies: eye drop 3 weeks. As to the method:
A −30 diopter (unit of refractive index: D) lens was attached to the right eye of 3-week-old male C57BL6J mice, while only a lens frame was attached to the left eye, which served as a control eye. The lenses were worn for three weeks, and the refractive index and axial length of eyes were measured before and after attachment of the lenses. Concurrently with myopia induction, an eye drop, which is a 0.025 solution of X441A in PBS, was administered by instillation once a day every day. PBS was administered by eye drop to the control group (group administered with PBS). After 3 weeks of myopia induction and eye drop administration, the eyeballs were enucleated from the mice, and the sclera was isolated. Then, western blotting was performed to analyze the expression levels of p62, Atg5, and Atg12 in each group.
After 3 weeks of myopia induction and eye drop administration, the eyeballs were enucleated from the mice, and the sclera was isolated. Then, western blotting was performed to analyze the expression levels of p62, Atg5, and Atg12 in the group administered with X441A and the group administered with PBS.

The test system of another series is luciferase. Briefly: Luciferase-based refolding assay in live cells. The following applies: compound 1 100 μM, compound 6 25 μM, 20 h. It is filed as cell-based. As to the method:
HEK293 cells were seeded in 96-well plates (2×10^4 cells/well) and transfected with a luciferase expression plasmid (0.1 μg/well) using FuGENE HD (Promega). […] Refolding assay was performed as described in Walther, T. V.; Maddalo, D. Intracellular Refolding Assay. J Vis Exp 2012, No. 59. https://doi.org/10.3791/3540. Briefly speaking, luciferase was denatured in live cells by incubation at 45° C. for 30 minutes in the presence of 200 mM MOPS and 20 μg/mL cycloheximide. After the denaturation step, the cells were incubated at 37° C. for various times to allow the luciferase to refold. After cells were lysed with Reporter Lysis 5× Buffer (Promega), luciferase activity was measured.

The next series concerns fibronectin. The experiment in a line: Western blotting of TGF-β2-induced fibronectin production in iFECD. It is filed as cell-based, human. Conditions: TGF-β2 stimulated iFECD. On the procedure:
5 μg of the extracted proteins were separated by SDS-PAGE and transferred to a nitrocellulose membrane. The primary antibodies used were mouse anti-fibronectin antibody (BD Bioscience, 610077) and mouse anti-GAPDH antibody (MBL, M171-3). The secondary antibodies used were peroxidase-labeled anti-rabbit antibody and anti-mouse antibody (GE Healthcare Biosciences, NA931V, NA934V). The primary antibodies were diluted as follows: mouse anti-fibronectin antibody, 15,000-fold; and mouse anti-GAPDH antibody, 5,000-fold. The secondary antibodies were diluted 5,000-fold. For detection, Chemi Lumi ONE Ultra (Nacalai Tesque, 11644-40) was used. The intensity of the detected bands was analyzed using a LAS-4000mini lumino image analyzer (Fujifilm) and ImageQuant™ software (GE Healthcare).
Background: A western blot detects proteins with antibodies after separation by electrophoresis.

Each structure is given as a SMILES string.

Take `NS(=O)(=O)c1ccc(Nc2ccn3c(n2)nc(=O)c2sc4cc(F)ccc4c23)cc1` [compound 1]: the Solubility entry in “Solubility” was “readily soluble”. Moreover, in the series on CHOP, the “Increase in CHOP mRNA levels” value is listed as “completely suppressed”. The “Effect on BiP mRNA levels” value in the series with BiP is reported as “limited effect”. Besides, the “Fluorescent particles within cells” value in the series on HEK293 cells (100 μM, after 8 hours) was “fluorescent particles were observed within the cells”. The “Increase in expression of At5/Atg12” value with Atg5, and Atg12 was “enhanced regardless of the administration of X441A”. For the same compound, the Refolding of luciferase result with luciferase is recorded as “slightly inhibited refolding”. Besides, in the series on fibronectin, the Fibronectin production result is recorded as “almost no production of fibronectin was observed”.
For the compound `COc1ccc2c(c1)sc1c(=O)nc3nc(Nc4ccc(S(N)(=O)=O)cc4)ccn3c12` [compound 6], the “Increase in CHOP mRNA levels” value in the series with CHOP is reported as “completely suppressed”. The “Effect on BiP mRNA levels” value with BiP is on record as “limited effect”. Further, in the series on HEK293 cells (25 μM, 8 h), the Assemblies within cells entry is given as “showed detectable assemblies within cells”. In addition, the Refolding of luciferase result in the series with luciferase was “slightly inhibited refolding”. Further, the Fibronectin production result in the series with fibronectin is “almost no production of fibronectin was observed”.
